Data on 1 substance can be found in patent US7339026B2, “mda-9 protein” (The Trustees of Columbia University In the City of New York, priority 1996, dated 2008).

What all share (assay type): cell-based, human
For experiment [1], the system named is mda-9 expression in H0-1 cells. In words: mda-9 RNA expression by Northern blotting, equalized to GAPDH. To be noted: H0-1. As to the method:
FIG. 1. Temporal expression of mda-9 in H0-1 cells exposed to IFN-β+MEZ. RNAs were isolated from untreated and H0-1 cells treated with IFN-β+MEZ (2000 U/ml+10 ng/ml) for 0.25, 0.5, 1, 2, 4, 8, 12 and 24 h. Ten micrograms of total cellular RNA were separated on 1% agarose gel, transferred to nylon membranes, sequentially hybridized with an mda-9 and then a GAPDH probe, and then exposed to autoradiography.
FIG. 4. Effect of interferons on mda-9 expression in H0-1 cells. H0-1 cells were grown for 96 h in the absence or presence of IFN-α (100 and 1000 U/ml), IFN-β (100 and 1000 U/ml) or IFN-γ (100 U/ml) and RNA was analyzed as described in FIG. 1.
FIGS. 9A-9B. Temporal and dose kinetics of IFN-γ enhancement in mda-9 expression in H0-1 human melanoma cells. H0-1 cells were treated for the indicated time (FIG. 9A) and dose (FIG. 9B) of IFN-γ, RNA was then isolated and analyzed by Northern blotting. […] Replicate samples varied by ≦15%.
(§1) Cell Lines and Culture Conditions. H0-1 is a melanotic melanoma cell line produced from a metastatic inguinal lymph node lesion from a person and was used between passages 150 and 175 (13,21,22). FM516-SV is a normal human melanocyte culture immortalized by the SV40 T-antigen gene (23). Additional melanoma cell lines established from patients with metastatic melanomas that were evaluated, include LO-1, SH-1, WM239, MeWo, SKMEL-p53 wt (containing a wild-type p53 gene) and SKMEL-p53 mut (containing a mutant p53 gene) (13,21,24). Cultures were grown at 37° C. in a 95% air 5% C02-humidified incubator in Dulbecco's modified Eagle's medium (DMEM) supplemented with 5 or 10% fetal bovine serum (Hyclone, Utah). Cultures were maintained in the logarithmic phase of growth by subculturing (1:5 or 1:10) prior to confluence approximately every 4 to 7 d. For determining steady-state RNA expression, cultures were seeded at 1.5×10^6 cells per 10-cm tissue culture plate, and 24 h later the medium was changed without inducers or with IFN-β (2000 U/ml), MEZ (10 ng/ml) or IFN-β+MEZ (2000 U/ml+10 ng/ml). Total cytoplasmic RNA was isolated at various time points and analyzed for mda-9 and GAPDH expression.
RNA Isolation, Northern Blotting and Southern Blotting of Genomic DNAs. Total cellular RNA was isolated by the guanidinium/phenol procedure and Northern blotting was performed as described (30-32). Ten μg of RNA were denatured with glyoxal/dimethyl sulfoxide (DMSO), electrophoresed on 1.0% agarose gels, transferred to nylon membranes and hybridized to a ^32P-labeled mda-9 probe and then after stripping the membranes were hybridized to a ^32P-labeled rat GAPDH probe (33) as described previously (30-32). […] RNA blots were quantitated by densitometric analysis using a Molecular Dynamics densitometer (Sunnyvale, Calif.) (34). […]

Experiment [2] relates to mda-9 expression in FM516-SV cells. In words: mda-9 RNA expression by Northern blotting, densitometer comparison with GAPDH. As to the method: FIG. 2. Effects of IFN-β+MEZ on mda-9 expression in human melanoma cells and an SV40-immortalized human melanocyte cell line. The indicated cell line was grown in the presence or absence of IFN-β+MEZ (2000 U/ml+10 ng/ml) for 96 h and RNA was analyzed as described in FIG. 1.
as §1, with “Cultures were maintained in the logarithmic phase of growth by subculturing (1:5 or 1:10) prior to confluence approximately every 4 to 7 d. For determining steady-state RNA expression, cultures were seeded at 1.5×10^6 cells per 10-cm tissue culture plate, and 24 h later the medium was changed without inducers or with IFN-β (2000 U/ml), MEZ (10 ng/ml) or IFN-β+MEZ (2000 U/ml+10 ng/ml).” left out
RNA Isolation, Northern Blotting and Southern Blotting of Genomic DNAs. […] RNA blots were quantitated by densitometric analysis using a Molecular Dynamics densitometer (Sunnyvale, Calif.) (34). […]

The next experiment has as its system FM516-SV. In words: Effect of recombinant immune interferon (IFN-γ) on growth (cell numbers). To be noted: 96 hr. An excerpt: Cell lines and culture conditions. H0-1 is a melanotic melanoma cell line produced from a metastatic inguinal node lesion from a person and was used between passages 170 and 200 (Giovanella et al., 1976; Huberman et al., 1979; Fisher et al., 1985). C8161 is a highly metastatic amelanotic human melanoma cell line derived from an abdominal wall metastasis (Welch et al., 1991). FM516-SV is a normal human melanocyte culture immortalized by the SV40 T-antigen gene (Melber et al., 1989). The WM35 cell line was isolated from a patient with a radial growth phase primary melanoma (Herlyn, 1990). The WM278 cell line is from a patient with an early vertical growth phase primary melanoma (Herlyn, 1990). Cultures were grown at 37° C. in a 95% air 5% C02-humidified incubator in Dulbecco's modified Eagle's medium (DMEM) supplemented with 5 or 10% fetal bovine serum. Cultures were maintained in the logarithmic phase of growth by subculturing (1:5 or 1:10) prior to confluence approximately every 4 to 7 D.

For the substance “IFN-γ: Recombinant human IFN-γ (type II, immune interferon)”, the “time at which enhanced mda-9 expression is apparent” value in experiment [1] (100 U/ml of recombinant human IFN-γ) is at most 2 h. The “dose giving maximum enhancing effects on mda-9 expression” value in experiment [1] (IFN-γ dose-response) and in experiment [2] (IFN-γ dose-response) was 10 U/ml throughout. Moreover, the “low dose at which mda-9 expression is elevated” value in experiment [1] (IFN-γ dose-response) and in experiment [2] (IFN-γ dose-response (data not shown)) was 0.1 U/ml in each case. In addition, the results for the “average cell number ± S.D.” value in the experiment on FM516-SV (1 U/ml of IFN-γ), in the experiment on FM516-SV (10 U/ml of IFN-γ) and in the experiment with FM516-SV (100 U/ml of IFN-γ) were 16.8 ± 0.5, 9.8 ± 0.6 and 5.1 ± 0.3, respectively. Further, the “percent of cell number reduction versus control” value in the experiment on FM516-SV (1 U/ml of IFN-γ) is reported as 19%; in the experiment with FM516-SV (10 U/ml of IFN-γ), 52%; in the experiment on FM516-SV (100 U/ml of IFN-γ) it was 75%.
